Test results from PubChem BioAssay AID1845195 (Molecular Pharmacology Branch, DTP, NCI, 2023).
Where “and” joins values, the source holds several entries; their conditions need not be identical. Identical values can stand only once.

System: 156681-154-R-J1 tumor spheroid viability
Test: Anticancer human tumor 156681-154-R-J1 patient-derived melanoma cell line growth inhibition
Conditions: spheroids with HUVEC and MSC; for viability, T/C: stronger effect = lower value
In short: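 Complex spheroids of malignant cells with endothelial cells and mesenchymal stem cells; agents alone or combined, from near clinical Cmax (or 10 microM if unknown) down in half-log steps, 0.25% DMSO final.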

[1] = curve of first compound, second compound 0.003 µM
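Also: spheroids exposed to compounds for 7 days before readout.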
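For viability, T/C in this document: percent of vehicle control viability where 100% = DMSO-treated spheroids.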

## COc1cc(C)[nH]c(=O)c1CN1CCc2c(Cl)cc(C(OC)C3COC3)c(Cl)c2C1=O (centres undefined)
Compound 0.0316 µM
  viability, T/C: 84.3% and 79.3% and 103%
Compound 0.1 µM
  viability, T/C: 96.4% and 99.4% and 110%
Compound 0.316 µM
  viability, T/C: 99% and 102% and 105%
Compound 1 µM
  viability, T/C: 91.7% and 88.1% and 112%
Compound 3.16 µM
  viability, T/C: 86% and 95.8% and 122%
Compound 10 µM
  viability, T/C: 107% and 93% and 118%
Curve of compound
  IC50: > 10000 nM

## CNCc1ccc(-c2cc(-c3nc(-c4ccc(S(=O)(=O)C(C)C)cc4)cnc3N)on2)cc1
Compound 0.00949 µM
  viability, T/C: 96.4% and 93.6% and 109%
Compound 0.03 µM
  viability, T/C: 103% and 118% and 115%
Compound 0.0949 µM
  viability, T/C: 95.8% and 90.1% and 96.7%
Compound 0.3 µM
  viability, T/C: 89% and 71.3% and 84.3%
Compound 0.949 µM
  viability, T/C: 59.4% and 53.5% and 57.1%
Compound 3 µM
  viability, T/C: 24.5% and 15.9% and 19.6%
Curve of compound
  IC50: 1290 nM and 931 nM and 1170 nM

## O=C(c1cc(Cc2n[nH]c(=O)c3ccccc23)ccc1F)N1CCN(C(=O)C2CC2)CC1 + CC[C@@]1(O)C(=O)OCc2c1cc1n(c2=O)Cc2cc3c(CN(C)C)c(O)ccc3nc2-1
[1]
  IC50: 21300 nM
Curve of first compound, second compound 0.00949 µM
  IC50: 14800 nM
Curve of first compound, second compound 0.03 µM
  IC50: < 94.9 nM
Curve of first compound, second compound 0.0949 µM
  IC50: < 94.9 nM
Curve of first compound, second compound 0.3 µM
  IC50: < 94.9 nM
Second compound 0.003 µM, first compound 0.0949 µM
  viability, T/C: 103%
Second compound 0.003 µM, first compound 0.3 µM
  viability, T/C: 80.6%
Second compound 0.003 µM, first compound 0.949 µM
  viability, T/C: 74.2%
Second compound 0.003 µM, first compound 3 µM
  viability, T/C: 74.5%
Second compound 0.003 µM, first compound 9.49 µM
  viability, T/C: 63%
Second compound 0.003 µM, first compound 30 µM
  viability, T/C: 42.1%
Second compound 0.00949 µM, first compound 0.0949 µM
  viability, T/C: 59.1%
Second compound 0.00949 µM, first compound 0.3 µM
  viability, T/C: 64.2%
Second compound 0.00949 µM, first compound 0.949 µM
  viability, T/C: 76.7%
Second compound 0.00949 µM, first compound 3 µM
  viability, T/C: 62.6%
Second compound 0.00949 µM, first compound 9.49 µM
  viability, T/C: 62%
Second compound 0.00949 µM, first compound 30 µM
  viability, T/C: 31.2%
Second compound 0.03 µM, first compound 0.0949 µM
  viability, T/C: 38.4%
Second compound 0.03 µM, first compound 0.3 µM
  viability, T/C: 41.1%
Second compound 0.03 µM, first compound 0.949 µM
  viability, T/C: 36.7%
Second compound 0.03 µM, first compound 3 µM
  viability, T/C: 29.8%
Second compound 0.03 µM, first compound 9.49 µM
  viability, T/C: 15.3%
Second compound 0.03 µM, first compound 30 µM
  viability, T/C: 15.5%
Second compound 0.0949 µM, first compound 0.0949 µM
  viability, T/C: 33.5%
Second compound 0.0949 µM, first compound 0.3 µM
  viability, T/C: 35.5%
Second compound 0.0949 µM, first compound 0.949 µM
  viability, T/C: 33%
Second compound 0.0949 µM, first compound 3 µM
  viability, T/C: 25.7%
Second compound 0.0949 µM, first compound 9.49 µM
  viability, T/C: 21.7%
Second compound 0.0949 µM, first compound 30 µM
  viability, T/C: 9.48%
Second compound 0.3 µM, first compound 0.0949 µM
  viability, T/C: 46%
Second compound 0.3 µM, first compound 0.3 µM
  viability, T/C: 46.4%
Second compound 0.3 µM, first compound 0.949 µM
  viability, T/C: 46.6%
Second compound 0.3 µM, first compound 3 µM
  viability, T/C: 46.2%
Second compound 0.3 µM, first compound 9.49 µM
  viability, T/C: 42.3%
Second compound 0.3 µM, first compound 30 µM
  viability, T/C: 13.3%

## COc1ccc([C@@H](O)c2cc(-c3ncnc4cc(N5CCOCC5)ccc34)c(F)cc2Cl)nn1 + COc1cc2c(cc1O)CCNC21CSC2c3c(OC(C)=O)c(C)c4c(c3C(COC1=O)N1C(O)C3Cc5cc(C)c(OC)c(O)c5C(C21)N3C)OCO4
Curve of first compound, second compound 30 pM
  IC50: 9850 nM
Curve of first compound, second compound 94.9 pM
  IC50: 5110 nM
Curve of first compound, second compound 0.0003 µM
  IC50: 427 nM
Curve of first compound, second compound 0.000949 µM
  IC50: < 31.6 nM
[1]
  IC50: < 31.6 nM
Second compound 30 pM, first compound 0.0316 µM
  viability, T/C: 118%
Second compound 30 pM, first compound 0.1 µM
  viability, T/C: 107%
Second compound 30 pM, first compound 0.316 µM
  viability, T/C: 88.5%
Second compound 30 pM, first compound 1 µM
  viability, T/C: 84.7%
Second compound 30 pM, first compound 3.16 µM
  viability, T/C: 64%
Second compound 30 pM, first compound 10 µM
  viability, T/C: 49.5%
Second compound 94.9 pM, first compound 0.0316 µM
  viability, T/C: 108%
Second compound 94.9 pM, first compound 0.1 µM
  viability, T/C: 92%
Second compound 94.9 pM, first compound 0.316 µM
  viability, T/C: 89.9%
Second compound 94.9 pM, first compound 1 µM
  viability, T/C: 69.5%
Second compound 94.9 pM, first compound 3.16 µM
  viability, T/C: 55.9%
Second compound 94.9 pM, first compound 10 µM
  viability, T/C: 41.5%
Second compound 0.0003 µM, first compound 0.0316 µM
  viability, T/C: 83.5%
Second compound 0.0003 µM, first compound 0.1 µM
  viability, T/C: 79.5%
Second compound 0.0003 µM, first compound 0.316 µM
  viability, T/C: 54.1%
Second compound 0.0003 µM, first compound 1 µM
  viability, T/C: 32.4%
Second compound 0.0003 µM, first compound 3.16 µM
  viability, T/C: 4.29%
Second compound 0.0003 µM, first compound 10 µM
  viability, T/C: 0.28%
Second compound 0.000949 µM, first compound 0.0316 µM
  viability, T/C: 5.23%
Second compound 0.000949 µM, first compound 0.1 µM
  viability, T/C: 2.87%
Second compound 0.000949 µM, first compound 0.316 µM
  viability, T/C: 0.68%
Second compound 0.000949 µM, first compound 1 µM
  viability, T/C: 0.1%
Second compound 0.000949 µM, first compound 3.16 µM
  viability, T/C: 0.07%
Second compound 0.000949 µM, first compound 10 µM
  viability, T/C: 0.18%
Second compound 0.003 µM, first compound 0.0316 µM
  viability, T/C: 0.27%
Second compound 0.003 µM, first compound 0.1 µM
  viability, T/C: 0.3%
Second compound 0.003 µM, first compound 0.316 µM
  viability, T/C: 0.22%
Second compound 0.003 µM, first compound 1 µM
  viability, T/C: 0.18%
Second compound 0.003 µM, first compound 3.16 µM
  viability, T/C: 0.16%
Second compound 0.003 µM, first compound 10 µM
  viability, T/C: 0.28%
